{
  "source": "ChEMBL document CHEMBL4376892",
  "about": "“Identification of Parthenolide Dimers as Activators of Pyruvate Kinase M2 in Xenografts of Glioblastoma Multiforme in Vivo” (J Med Chem, 2020)",
  "key": {"U-87 MG [1]": {"system": "U-87 MG", "assay": "Antimetastatic activity against human U87 cells assessed as reduction in cell invasion at 2 uM after 24 hrs by crystal violet staining based transwell assay", "format": "functional", "details": "U-87MG ATCC"}, "Pyruvate kinase PKM [2]": {"target": "T1, Pyruvate kinase PKM (Homo sapiens, UniProt P14618)", "T1 sequence (P14618 2-531 limits assumed)": "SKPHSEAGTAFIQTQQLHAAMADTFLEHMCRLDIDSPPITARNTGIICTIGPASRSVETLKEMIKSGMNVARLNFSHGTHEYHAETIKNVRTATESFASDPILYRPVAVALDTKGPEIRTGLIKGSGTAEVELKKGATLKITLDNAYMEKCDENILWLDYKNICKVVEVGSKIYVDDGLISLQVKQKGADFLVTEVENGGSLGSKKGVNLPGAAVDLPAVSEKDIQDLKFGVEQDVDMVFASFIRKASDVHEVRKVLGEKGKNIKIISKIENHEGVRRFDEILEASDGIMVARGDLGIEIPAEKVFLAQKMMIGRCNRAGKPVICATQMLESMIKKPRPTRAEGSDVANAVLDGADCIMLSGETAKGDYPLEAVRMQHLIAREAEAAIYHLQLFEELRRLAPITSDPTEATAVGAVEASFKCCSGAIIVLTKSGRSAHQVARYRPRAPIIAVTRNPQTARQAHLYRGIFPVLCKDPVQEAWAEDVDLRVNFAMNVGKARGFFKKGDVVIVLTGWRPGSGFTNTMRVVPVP", "assay": "Activation of PKM2 in human U118MG cells assessed as increase in PKM2 tetramer formation at 0.5 to 1 uM after 48 hrs by chemical cross-linking based Western blot analysis", "format": "cell-based"}, "NIH3T3": {"system": "NIH3T3", "assay": "Cytotoxicity against mouse 3T3 cells assessed as reduction in cell viability after 72 hrs by MTT assay", "format": "cell-based", "details": "NIH3T3, 72 h"}, "HeLa": {"system": "HeLa", "assay": "Antiproliferative activity against human HeLa cells assessed as reduction in cell viability after 72 hrs by MTT assay", "format": "functional, cell-based"}, "U-118-MG [3]": {"system": "U-118-MG", "assay": "Antimetastatic activity against human U118MG cells assessed as reduction in cell invasion at 2 uM after 24 hrs by crystal violet staining based transwell assay", "format": "functional"}, "Pyruvate kinase PKM [4]": {"target": "T1, Pyruvate kinase PKM", "assay": "Inhibition of PKM2 dimer nuclear translocation in human U87 cells assessed as reduction in PKM2 accumulation in nucleus at 0.5 to 1 uM after 48 hrs by Western blot analysis", "format": "cell-based", "details": "U-87MG ATCC"}, "Pyruvate kinase PKM [5]": {"target": "T1, Pyruvate kinase PKM", "assay": "Activation of PKM2 in human U87 cells assessed as increase in bax protein expression at 1 to 2 uM after 48 hrs by Western blot analysis", "format": "cell-based", "details": "U-87MG ATCC"}, "U-87 MG [6]": {"system": "U-87 MG", "assay": "Induction of apoptosis in human U87 cells transfected with lentivirus expressing shNC assessed as early apoptotic cells after 48 hrs by Annexin-V-FITC/PI-staining based flow cytometric analysis (reference value: 0.588%)", "format": "functional, U-87MG ATCC"}, "U-118-MG [7]": {"system": "U-118-MG", "assay": "Effect on total PKM2 protein expression in human U118MG cells at 0.5 to 2 uM after 48 hrs by Western blot analysis", "format": "functional, cell-based"}, "U-87 MG [8]": {"system": "U-87 MG", "assay": "Induction of apoptosis in human U87 cells transfected with lentivirus expressing shNC assessed as necrotic cells after 48 hrs by Annexin-V-FITC/PI-staining based flow cytometric analysis (reference value: 0.319%)", "format": "functional, U-87MG ATCC"}, "HepG2": {"system": "HepG2", "assay": "Antiproliferative activity against human HepG2 cells assessed as reduction in cell viability after 72 hrs by MTT assay", "format": "functional, cell-based", "details": "HepG2, 72 h"}, "Pyruvate kinase PKM [9]": {"target": "T1, Pyruvate kinase PKM", "assay": "Activation of PKM2 in human U87 cells assessed as reduction in bcl-xl expression at 1 to 2 uM after 48 hrs by Western blot analysis", "format": "cell-based", "details": "U-87MG ATCC"}, "[10]": {"target": "T2, Inhibitor of nuclear factor kappa-B kinase subunit beta (Homo sapiens) (UniProt O14920)", "T2 sequence (whole entry)": "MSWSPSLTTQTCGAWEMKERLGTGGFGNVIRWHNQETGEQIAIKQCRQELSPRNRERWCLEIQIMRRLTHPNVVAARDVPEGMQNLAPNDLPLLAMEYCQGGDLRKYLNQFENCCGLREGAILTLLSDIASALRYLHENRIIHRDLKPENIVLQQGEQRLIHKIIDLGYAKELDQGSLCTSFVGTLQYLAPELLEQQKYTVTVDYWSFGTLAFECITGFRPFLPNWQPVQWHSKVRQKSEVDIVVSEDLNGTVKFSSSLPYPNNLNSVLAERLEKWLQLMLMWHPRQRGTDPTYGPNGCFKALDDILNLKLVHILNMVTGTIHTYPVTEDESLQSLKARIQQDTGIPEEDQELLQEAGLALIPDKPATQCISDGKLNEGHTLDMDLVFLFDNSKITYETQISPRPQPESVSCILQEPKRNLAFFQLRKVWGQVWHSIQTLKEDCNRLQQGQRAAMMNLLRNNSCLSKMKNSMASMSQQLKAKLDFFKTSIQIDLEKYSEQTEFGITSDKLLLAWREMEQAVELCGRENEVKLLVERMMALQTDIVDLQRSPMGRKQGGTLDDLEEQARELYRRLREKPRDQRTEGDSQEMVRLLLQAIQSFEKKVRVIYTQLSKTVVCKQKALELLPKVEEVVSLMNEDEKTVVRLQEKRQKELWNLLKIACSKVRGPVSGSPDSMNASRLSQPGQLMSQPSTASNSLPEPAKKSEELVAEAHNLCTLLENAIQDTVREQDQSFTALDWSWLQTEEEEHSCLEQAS", "assay": "Effect on IKKbeta phosphorylation in human U118MG cells at 0.2 to 0.5 uM after 48 hrs by Western blot analysis", "format": "cell-based"}, "U-87 MG [11]": {"system": "U-87 MG", "assay": "Induction of apoptosis in human U87 cells assessed as early apoptotic cells after 48 hrs by Annexin-V-FITC/PI-staining based flow cytometric analysis (reference value: 4.91%)", "format": "functional, U-87MG ATCC"}, "U-118-MG [12]": {"system": "U-118-MG", "assay": "Antiproliferative activity against human U118MG cells assessed as reduction in cell viability after 72 hrs by MTT assay", "format": "functional, cell-based"}, "Pyruvate kinase PKM [13]": {"target": "T1, Pyruvate kinase PKM", "assay": "Activation of PKM2 in human U118MG cells assessed as increase in bax protein expression at 1 to 2 uM after 48 hrs by Western blot analysis", "format": "cell-based"}, "U-87 MG [14]": {"system": "U-87 MG", "assay": "Inhibition of colony formation in human U87 cells after 7 days", "format": "functional, cell-based", "details": "U-87MG ATCC"}, "Pyruvate kinase PKM [15]": {"target": "T1, Pyruvate kinase PKM", "assay": "Activation of PKM2 in human U118MG cells assessed as increase in E-cadherin expression at 1 to 2 uM after 24 hrs by Western blot analysis", "format": "cell-based"}, "U-87 MG [16]": {"system": "U-87 MG", "assay": "Induction of apoptosis in human U87 cells after 48 hrs by Annexin-V-FITC/PI-staining based flow cytometric analysis", "format": "functional, cell-based", "details": "U-87MG ATCC"}, "U-87MG ATCC [17]": {"system": "U-87MG ATCC", "assay": "Effect on IKK-beta protein expression in human U87 cells at 0.2 to 0.5 uM after 48 hrs by Western blot analysis", "format": "functional, cell-based"}, "Pyruvate kinase PKM [18]": {"target": "T1, Pyruvate kinase PKM", "assay": "Covalent binding affinity to recombinant human N-terminal 6His-tagged PKM2 expressed in Escherichia coli BL21 Cells after 2 hrs by LC-MS/MS analysis"}, "Pyruvate kinase PKM [19]": {"target": "T1, Pyruvate kinase PKM", "assay": "Activation of PKM2 in human U87 cells assessed as increase in E-cadherin expression at 1 to 2 uM after 24 hrs by Western blot analysis", "format": "cell-based", "details": "U-87MG ATCC"}, "Pyruvate kinase PKM [20]": {"target": "T1, Pyruvate kinase PKM", "assay": "Activation of PKM2 in human U87 cells assessed as inhibition of STAT3 protein expression at 5 uM after 48 hrs by Western blot analysis", "format": "cell-based", "details": "U-87MG ATCC"}, "U-118-MG [21]": {"system": "U-118-MG", "assay": "Induction of apoptosis in human U118MG cells assessed as viable cells after 48 hrs by Annexin-V-FITC/PI-staining based flow cytometric analysis (reference value: 96.7%)", "format": "functional"}, "Pyruvate kinase PKM [22]": {"target": "T1, Pyruvate kinase PKM", "assay": "Activation of PKM2 in human U87 cells assessed as increase in PKM2 tetramer formation at 0.5 to 1 uM after 48 hrs by chemical cross-linking based Western blot analysis", "format": "cell-based", "details": "U-87MG ATCC"}, "Pyruvate kinase PKM [23]": {"target": "T1, Pyruvate kinase PKM", "assay": "Activation of PKM2 in human U118MG cells assessed as inhibition of STAT3 phosphorylation at 1 to 2 uM after 24 hrs by Western blot analysis", "format": "cell-based"}, "U-87 MG [24]": {"system": "U-87 MG", "assay": "Antimetastatic activity against human U87 cells assessed as reduction in cell migration at 2 uM after 24 hrs by crystal violet staining based transwell assay", "format": "functional", "details": "U-87MG ATCC"}, "Pyruvate kinase PKM [25]": {"target": "T1, Pyruvate kinase PKM", "assay": "Activation of PKM2 in human U118MG cells assessed as inhibition of STAT3 protein expression at 2 uM after 48 hrs by Western blot analysis", "format": "cell-based"}, "U-87MG ATCC [26]": {"system": "U-87MG ATCC", "assay": "Effect on P65 protein expression in human U87 cells at 0.2 to 0.5 uM after 48 hrs by Western blot analysis", "format": "functional, cell-based"}, "Pyruvate kinase PKM [27]": {"target": "T1, Pyruvate kinase PKM", "assay": "Activation of PKM2 in human U87 cells assessed as reduction in bcl2 expression at 1 to 2 uM after 48 hrs by Western blot analysis", "format": "cell-based", "details": "U-87MG ATCC"}, "U-87MG ATCC [28]": {"system": "U-87MG ATCC", "assay": "Effect on total PKM2 protein expression in human U87 cells at 0.5 to 5 uM after 48 hrs by Western blot analysis", "format": "functional, cell-based"}},
  "note": "Activity calls are given as the source filed them. No cut-off for these calls is given here.",
  "data": [
    {"smiles": "C=C1C(=O)O[C@H]2[C@H]1CC/C(C(=O)OCCOCCOC(=O)/C1=C/CC[C@@]3(C)O[C@H]3[C@H]3OC(=O)C(=C)[C@@H]3CC1)=C\\CC[C@@]1(C)O[C@@H]21", "values": [
      {"measurement": "Activity", "setting": "U-87 MG [1]", "value": "Active"},
      {"measurement": "Activity", "setting": "Pyruvate kinase PKM [2]", "value": "Active"},
      {"measurement": "IC50", "setting": "NIH3T3", "value": 7.93, "unit": "µM"},
      {"measurement": "IC50", "setting": "HeLa", "value": 5.05, "unit": "µM"},
      {"measurement": "Activity", "setting": "U-118-MG [3]", "value": "Active"},
      {"measurement": "inhibition", "setting": "Pyruvate kinase PKM [4]", "value": "Active"},
      {"measurement": "Activity", "setting": "Pyruvate kinase PKM [5]", "value": "Active"},
      {"measurement": "Activity", "setting": "U-87 MG [6]", "value": 9.99, "unit": "%"},
      {"measurement": "Activity", "setting": "U-118-MG [7]", "value": "inactive"},
      {"measurement": "Activity", "setting": "U-87 MG [8]", "value": 1.24, "unit": "%"},
      {"measurement": "IC50", "setting": "HepG2", "value": 10.2, "unit": "µM"},
      {"measurement": "Activity", "setting": "Pyruvate kinase PKM [9]", "value": "Active"},
      {"measurement": "Activity", "setting": "[10]", "value": "inactive"},
      {"measurement": "Activity", "setting": "U-87 MG [11]", "value": 24.4, "unit": "%"},
      {"measurement": "IC50", "setting": "U-118-MG [12]", "value": 1.8, "unit": "µM"},
      {"measurement": "Activity", "setting": "Pyruvate kinase PKM [13]", "value": "Active"},
      {"measurement": "inhibition", "setting": "U-87 MG [14]", "value": "Dose-dependent effect"},
      {"measurement": "Activity", "setting": "Pyruvate kinase PKM [15]", "value": "Active"},
      {"measurement": "Activity", "setting": "U-87 MG [16]", "value": "Dose-dependent effect"},
      {"measurement": "Activity", "setting": "U-87MG ATCC [17]", "value": "inactive"},
      {"measurement": "Activity", "setting": "Pyruvate kinase PKM [18]", "value": "Active"},
      {"measurement": "Activity", "setting": "Pyruvate kinase PKM [19]", "value": "Active"},
      {"measurement": "Activity", "setting": "Pyruvate kinase PKM [20]", "value": "Active"},
      {"measurement": "Activity", "setting": "U-118-MG [21]", "value": 12.5, "unit": "%"},
      {"measurement": "Activity", "setting": "Pyruvate kinase PKM [22]", "value": "Active"},
      {"measurement": "Activity", "setting": "Pyruvate kinase PKM [23]", "value": "Active"},
      {"measurement": "Activity", "setting": "U-87 MG [24]", "value": "Active"},
      {"measurement": "Activity", "setting": "Pyruvate kinase PKM [25]", "value": "Active"},
      {"measurement": "Activity", "setting": "U-87MG ATCC [26]", "value": "inactive"},
      {"measurement": "Activity", "setting": "Pyruvate kinase PKM [27]", "value": "Active"},
      {"measurement": "Activity", "setting": "U-87MG ATCC [28]", "value": "inactive"}
    ]}
  ]
}
